This passage reports Emax, EC1.5 and IC50 results from US9556201B2, “Bicyclic pyridines and analogs as sirtuin modulators” (GLAXOSMITHKLINE LLC, priority 2009, dated 2017).

For orientation: IC50 means the concentration that inhibits the measured activity by half. Read a low IC50 as greater potency in that assay.

One experiment has as its target T1, SIRT1 (Homo sapiens, UniProt Q96EB6).
T1 sequence (Q96EB6 1-747): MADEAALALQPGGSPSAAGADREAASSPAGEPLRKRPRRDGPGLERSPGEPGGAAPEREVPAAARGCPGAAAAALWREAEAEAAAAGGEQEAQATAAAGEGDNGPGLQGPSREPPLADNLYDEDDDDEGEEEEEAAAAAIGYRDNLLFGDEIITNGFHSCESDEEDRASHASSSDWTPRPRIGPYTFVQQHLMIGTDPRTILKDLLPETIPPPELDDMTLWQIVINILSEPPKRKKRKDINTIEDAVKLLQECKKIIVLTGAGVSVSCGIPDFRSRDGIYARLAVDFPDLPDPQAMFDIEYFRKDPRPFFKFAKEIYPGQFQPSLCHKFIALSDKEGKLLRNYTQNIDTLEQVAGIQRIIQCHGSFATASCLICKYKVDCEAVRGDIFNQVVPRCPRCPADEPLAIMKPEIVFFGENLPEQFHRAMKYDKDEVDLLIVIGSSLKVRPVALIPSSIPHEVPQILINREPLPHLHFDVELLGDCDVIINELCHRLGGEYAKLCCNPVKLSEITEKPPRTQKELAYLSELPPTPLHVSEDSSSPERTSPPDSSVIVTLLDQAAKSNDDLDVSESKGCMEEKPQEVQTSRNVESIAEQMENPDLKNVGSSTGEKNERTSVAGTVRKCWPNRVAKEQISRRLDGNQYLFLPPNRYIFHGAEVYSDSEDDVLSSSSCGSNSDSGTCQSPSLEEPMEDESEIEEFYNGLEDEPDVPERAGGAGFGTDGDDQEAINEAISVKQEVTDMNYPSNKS
Kind of experiment: Mass spectrometry based assay to identify modulators of SIRT1 activity (deacetylation of p53-based acetylated peptide substrate). Type of experiment: biochemical. Particulars: SIRT1 activation; for Emax: 25 min, read-out: % FOLD ACT. (percent maximum fold activation). In outline:
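Deacetylation of a modified p53 acetyl-lysine peptide ([…], 5TMR-labelled, Nle for Met) by 10 nM N-His SIRT1 with 120 μM βNAD+, pH 8, 25 min, 25 °C. Substrate and product masses measured by MS after formic acid quench; nicotinamide defines maximal inhibition.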

For another experiment, the system named is TNF. Kind of experiment: TNF IC50 (column of Table 1; method not shown). It counts as cell-based.

As for `CN1CCN(C(=O)Nc2ccnc(N3CCC3)c2)c2nc(-c3cccc(C(F)(F)F)c3)ccc21` [Compound 538], at SIRT1, the Emax is above 200% and the EC1.5 result is recorded as “A (EC1.5<1.0 μM)”. This molecule also returned a concentration for half-maximal inhibition (IC50) with TNF below 20 µM.
As for `CN1CCN(C(=O)Nc2cccc(CN3CCOCC3)n2)c2nc(-c3cccc(C(F)(F)F)c3)ccc21` [Compound 539], at SIRT1, the Emax is above 200% and the EC1.5 result is listed as “A (EC1.5<1.0 μM)”. In the experiment with TNF, the IC50 is below 20 µM.
The corresponding values for `Cc1cc(NC(=O)N2CCOc3ccc(-c4cccc(C(F)(F)F)c4)nc32)ccn1` [Compound 548] are above 200%, “A (EC1.5<1.0 μM)” and at least 20 µM.
For `O=C(Nc1ccncc1F)N1CCOc2ccc(-c3cccc(C(F)(F)F)c3)nc21` [Compound 549], in that order: above 200%, “A (EC1.5<1.0 μM)” and at least 20 µM.
For `Cc1cncc(NC(=O)N2CCOc3ccc(-c4cccc(C(F)(F)F)c4)nc32)c1` [Compound 551], in that order: above 200%, “A (EC1.5<1.0 μM)” and at least 20 µM.
Take `Cc1cc(NC(=O)N2CCOc3ccc(-c4cccc(C(F)(F)F)c4)nc32)cc(C)n1` [Compound 556]: on SIRT1, the Emax is above 200% and the EC1.5 result is “A (EC1.5<1.0 μM)”. Also, the IC50 in the experiment on TNF is below 20 µM.
For `O=C(Nc1ccncc1)N1CCOc2ccc(-c3cccc(N4CCOCC4)c3)nc21` [Compound 557], in that order: above 200%, “A (EC1.5<1.0 μM)” and at least 20 µM.
For `O=C(Nc1ccncc1)N1CCOc2ccc(-c3cccc(N4CCCC4)c3)nc21` [Compound 559], in that order: above 200%, “A (EC1.5<1.0 μM)” and below 20 µM.
For `CC1(C)CN(C(=O)Nc2ccncc2)c2nc(-c3cccc(C(F)(F)F)c3)ccc2O1` [Compound 560, 2,2-dimethyl-N-(pyridin-4-yl)-6-(3-(trifluoromethyl)phenyl)-2H-pyrido[3,2-b][1,4]oxazine-4(3H)-carboxamide], in that order: above 200%, “A (EC1.5<1.0 μM)” and at least 20 µM.
As to `O=C(Nc1ccc(F)cn1)N1CCOc2ccc(-c3cccc(C(F)(F)F)c3)nc21` [Compound 566], on SIRT1, the Emax is above 200% and the EC1.5 result is reported as “A (EC1.5<1.0 μM)”. In the experiment on TNF, the IC50 is at least 20 µM.
The corresponding values for `O=C(Nc1cccc(OC[C@H](O)CO)n1)N1CCOc2ccc(-c3cccc(C(F)(F)F)c3)nc21` [Compound 570, (R)—N-(6-(2,3-dihydroxypropoxy)pyridin-2-yl)-6-(3-(trifluoromethyl)phenyl)-2H-pyrido[3,2-b][1,4]oxazine-4(3H)-carboxamide] are above 200%, “A (EC1.5<1.0 μM)” and below 20 µM.
As to `O=C(Nc1cccc(OC[C@@H](O)CO)n1)N1CCOc2ccc(-c3cccc(C(F)(F)F)c3)nc21` [Compound 571], at SIRT1, the Emax is above 200% and the EC1.5 entry is on record as “A (EC1.5<1.0 μM)”. Also, in the experiment with TNF, the IC50 is below 20 µM.
For `Cc1cc(NC(=O)N2CCOc3ccc(-c4ccc5c(c4)CCO5)nc32)cc(C)n1` [Compound 574], in that order: above 200%, “A (EC1.5<1.0 μM)” and at least 20 µM.
The corresponding values for `Cc1csc(NC(=O)N2CCCOc3ccc(-c4cccc(C(F)(F)F)c4)nc32)n1` [Compound 578] are above 200%, “A (EC1.5<1.0 μM)” and at least 20 µM.
In the case of `Cc1cncc(NC(=O)N2CCCc3ccc(-c4cccc(C(F)(F)F)c4)nc32)c1` [Compound 585, N-(5-methylpyridin-3-yl)-7-(3-(trifluoromethyl)phenyl)-3,4-dihydro-1,8-naphthyridine-1(2H)-carboxamide], on SIRT1, the Emax was above 200% and the EC1.5 result is “A (EC1.5<1.0 μM)”. Besides, the half-inhibitory concentration (IC50) in the experiment with TNF is below 20 µM.
For `O=C(Nc1cncc(F)c1)N1CCCc2ccc(-c3cccc(C(F)(F)F)c3)nc21` [Compound 586], in that order: above 200%, “A (EC1.5<1.0 μM)” and below 20 µM.
For `Cc1cc(NC(=O)N2CCCc3ccc(-c4cccc(C(F)(F)F)c4)nc32)cc(C)n1` [Compound 587], in that order: above 200%, “A (EC1.5<1.0 μM)” and below 20 µM.
The corresponding values for `Cc1csc(NC(=O)N2CCCc3ccc(-c4cccc(C(F)(F)F)c4)nc32)n1` [Compound 588] are above 200%, “A (EC1.5<1.0 μM)” and at least 20 µM.
For `O=C(Nc1ccnc(N2CCC2)c1)N1CCCc2ccc(-c3cccc(C(F)(F)F)c3)nc21` [Compound 589], at SIRT1, the Emax is above 200% and the EC1.5 entry is listed as “A (EC1.5<1.0 μM)”. The molecule further gave a half-maximal inhibitory concentration (IC50) in the experiment with TNF below 20 µM.
Regarding `Cc1cncc(NC(=O)N2CCCc3ccc(-c4cccc(F)c4)nc32)c1` [Compound 590], at SIRT1, the Emax is above 200% and the EC1.5 entry was “A (EC1.5<1.0 μM)”. Besides, the half-inhibitory concentration (IC50) in the experiment on TNF is below 20 µM.
On to `Cc1cncc(NC(=O)N2CC(C)(C)Oc3ccc(-c4cccc(F)c4)nc32)c1` [Compound 591], for which, on SIRT1, the Emax was above 200% and the EC1.5 result is recorded as “A (EC1.5<1.0 μM)”. Moreover, the IC50 in the experiment on TNF was below 20 µM.
The corresponding values for `Cc1cc(NC(=O)N2CC(C)(C)Oc3ccc(-c4cccc(F)c4)nc32)cc(C)n1` [Compound 592] are above 200%, “A (EC1.5<1.0 μM)” and at least 20 µM.
For `Cc1cncc(NC(=O)N2CC(C)(C)Oc3ccc(-c4cccc(N(C)C)c4)nc32)c1` [Compound 593], in that order: above 200%, “A (EC1.5<1.0 μM)” and at least 20 µM.
As for `O=C(Nc1cncc(F)c1)N1CCCc2ccc(-c3cccc(F)c3)nc21` [Compound 594], the EC1.5 result at SIRT1 was “A (EC1.5<1.0 μM)”. In addition, the concentration for half-maximal inhibition (IC50) with TNF is at least 20 µM.
`Cc1cc(NC(=O)N2CCCc3ccc(-c4cccc(F)c4)nc32)cc(C)n1` [Compound 595]: on SIRT1, the Emax was above 200% and the EC1.5 result is listed as “A (EC1.5<1.0 μM)”. Further, in the experiment with TNF, the IC50 is below 20 µM.
The corresponding values for `O=C(Nc1ccnc(N2CCC2)c1)N1CCCc2ccc(-c3cccc(F)c3)nc21` [Compound 596] are above 200%, “A (EC1.5<1.0 μM)” and below 20 µM.
The corresponding values for `Cc1cc(NC(=O)N2CC(C)(C)Oc3ccc(-c4cccc(N(C)C)c4)nc32)cc(C)n1` [Compound 597] are above 200%, “A (EC1.5<1.0 μM)” and below 20 µM.
For `Cc1cncc(NC(=O)N2CCCOc3ccc(-c4cccc(Cl)c4)nc32)c1` [Compound 598], at SIRT1, the Emax is above 200% and the EC1.5 entry was “A (EC1.5<1.0 μM)”. In the experiment with TNF, this molecule returned a half-maximal inhibitory concentration (IC50) below 20 µM.
Consider `Cc1cncc(NC(=O)N2CCCc3ccc(-c4cccc(Cl)c4)nc32)c1` [Compound 599], for which, at SIRT1, the Emax is above 200% and the EC1.5 result is on record as “A (EC1.5<1.0 μM)”. For the same molecule, the IC50 with TNF was at least 20 µM.
For `Cc1cncc(NC(=O)N2CC(C)(C)Oc3ccc(-c4cccc(Cl)c4)nc32)c1` [Compound 600], in that order: above 200%, “A (EC1.5<1.0 μM)” and below 20 µM.
The corresponding values for `Cc1cc(NC(=O)N2CC(C)(C)Oc3ccc(-c4cccc(Cl)c4)nc32)cc(C)n1` [Compound 602] are above 200%, “A (EC1.5<1.0 μM)” and at least 20 µM.
The corresponding values for `Cc1cncc(NC(=O)N2CC(C)(C)Oc3ccc(-c4cccc(N5CCCC5)c4)nc32)c1` [Compound 603] are above 200%, “A (EC1.5<1.0 μM)” and at least 20 µM.
`CC1(C)CN(C(=O)Nc2cncc(F)c2)c2nc(-c3cccc(N4CCCC4)c3)ccc2O1` [Compound 604]: on SIRT1, the Emax is above 200% and the EC1.5 result is “A (EC1.5<1.0 μM)”. This molecule also displayed a concentration for half-maximal inhibition (IC50) in the experiment with TNF of at least 20 µM.
With `Cc1cc(NC(=O)N2CC(C)(C)Oc3ccc(-c4cccc(N5CCCC5)c4)nc32)cc(C)n1` [Compound 605], on SIRT1, the Emax was above 200% and the EC1.5 result is on record as “A (EC1.5<1.0 μM)”. In addition, the IC50 in the experiment with TNF is at least 20 µM.
Turning to `Cc1csc(NC(=O)N2CC(C)(C)Oc3ccc(-c4cccc(N5CCCC5)c4)nc32)n1` [Compound 606], on SIRT1, the Emax is at most 200% and the EC1.5 result is listed as “A (EC1.5<1.0 μM)”. Moreover, in the experiment with TNF, the half-inhibitory concentration (IC50) was at least 20 µM.
For `Cc1csc(NC(=O)N2CCCOc3ccc(-c4cccc(Cl)c4)nc32)n1` [Compound 607], in that order: above 200%, “A (EC1.5<1.0 μM)” and at least 20 µM.
